# Test results as given in patent US20030211995A1, “Methods and formulations for eradicating or alleviating staphylococcal nasal colonization using lysostaphin” (priority 2001, published 2003).
# Where two headings read alike, the source gives them in different places. Marks after values point to notes of the source that are not given here. Where a SMILES comes first, the peptide text is derived from it.
# How the values were obtained:
# [1] = test system: S. aureus strain MBT 5040; assay: MIC by microtiter dilution assay; type: cell-based
# Experimental: At the same time, a Columbia agar plate containing 2% NaCl (CSA) was inoculated with S. aureus strain MBT 5040 from a frozen stock. […] The MIC of a drug for a particular bacterial strain is the minimum concentration of the drug that inhibits normal growth of that particular bacterial strain.
# Any detected S. aureus after lysostaphin treatment were tested for lysostaphin resistance by microtiter dilution assay. […] Plates were prepared by making lysostaphin dilutions in cation-adjusted Mueller Hinton broth+2%NaCl and 0.1%BSA (CAMHB+). The CAMHB+2% NaCl was made first, autoclaved, and then sterile 30% BSA was added to equal 0.1% BSA concentration. BSA prevents nonspecific lysostaphin interaction with plastic. The final volume of CAMHB+ in each well was 50 μl. Dilutions were 1:2, prepared by mixing 50 μl of the previous dilution into 50 μl of fresh media. The final row on the plate was left with no lysostaphin added as a control for growth. […] Overnight cultures were diluted ˜1:1000, as determined empirically, to yield a final concentration of 5×10^5/ml by measuring the optical density at 650 nm (OD650). […] The minimal inhibitory concentration (MIC) of lysostaphin, the lowest concentration of lysostaphin that prevents normal growth, was determined by reading the OD650 on a microplate reader.
# Plates were incubated at room temperature for 6 to 18 hours. The OD650 was determined.
# SA5 Sam = assay: Lysostaphin MIC assay, outgrowth of lysostaphin resistance with or without sub-MIC bacitracin or nisin; type: cell-based, S. aureus; conditions: nisin or bacitracin at four-fold dilution below MIC
# Experimental: (§1) Lysostaphin MIC assays were conducted in the presence or absence of subinhibitory concentrations (four-fold dilution below MIC) of either bacitracin or nisin to determine if either substance prevented the outgrowth of lysostaphin resistance in these assays. This is as previously described in Example 14, above.
# SA5 USU = assay: as above; type: cell-based, S. aureus; conditions: nisin or bacitracin at four-fold dilution below MIC
# Experimental: as §1
# SA8 Sam = assay: as above; type: cell-based, S. aureus; conditions: nisin or bacitracin at four-fold dilution below MIC
# Experimental: as §1
# MBT 5040 LysoR = assay: MIC of lysostaphin for lysostaphin-resistant variant; type: cell-based, S. aureus; conditions: variant isolated in vitro
# Experimental: Any detected S. aureus after lysostaphin treatment were tested for lysostaphin resistance by microtiter dilution assay. Lysostaphin was resuspended in sterile PBS, aliquotted and stored at −80° C. […] Once thawed, an aliquot of lysostaphin was stored at 4° C. and used for no more than two weeks. Plates were prepared by making lysostaphin dilutions in cation-adjusted Mueller Hinton broth+2%NaCl and 0.1%BSA (CAMHB+). The CAMHB+2% NaCl was made first, autoclaved, and then sterile 30% BSA was added to equal 0.1% BSA concentration. […] The final volume of CAMHB+ in each well was 50 μl. Dilutions were 1:2, prepared by mixing 50 μl of the previous dilution into 50 μl of fresh media. The final row on the plate was left with no lysostaphin added as a control for growth. A starting concentration of 1 μg/ml lysostaphin was used as the stock concentration. […] Overnight cultures were diluted ˜1:1000, as determined empirically, to yield a final concentration of 5×10^5/ml by measuring the optical density at 650 nm (OD650). […] The minimal inhibitory concentration (MIC) of lysostaphin, the lowest concentration of lysostaphin that prevents normal growth, was determined by reading the OD650 on a microplate reader.
# Plates were incubated at room temperature for 6 to 18 hours. The OD650 was determined. […]
# S. aureus (ATCC 49521) = assay: Lysostaphin MIC assay, outgrowth of lysostaphin resistance with or without sub-MIC bacitracin or nisin; type: cell-based; design: key to growth in lysostaphin MIC assay: G = Normal growth; Blank = no growth; R = resistance outgrowth as determined by addition of 20 μg/ml lysostaphin for 4 hrs following initial overnight incubation; conditions: for growth in lysostaphin MIC assay: replicate rows
# Experimental: When lysostaphin is tested in a standard “Minimum Inhibitory Concentration” (MIC) assay, outgrowth of S. aureus is sometime observed above the MIC for almost all strains of S. aureus examined. On further testing, these outgrowth wells are found to contain lysostaphin-resistant S. aureus with MICs many dilutions above the MIC of the parental strain. […] This Example illustrates that the addition of the antibacterial agent bacitracin, eliminates lysostaphin-resistant outgrowths in vitro, and may likewise reduce or eliminate resistant outgrowths in vivo. […] Of course, nasal formulations comprising antibacterial agents above the MIC for that particular agent are also within the scope of this invention.
# In this experiment a NCCLS standard MIC is conducted with the modification of adding 0.1% BSA to the assay. Rows 1-4 are lysostaphin MICs conducted in the absence of bacitracin while rows 5-8 are lysostaphin MICs conducted in the presence of bacitracin (5 μg/ml).
# as §1
# Type 5 S. aureus (MSSA) = assay: Cotton rat nasal colonization model, single dose of cream; type: in vivo; conditions: Table 6d; single dose of 0.5% lysostaphin cream
# Experimental: (§2) On the day of instillation, S. aureus MBT 5040 was harvested from the CSA plate by scraping colonies into sterile. PBS (1 ml/animal to be instilled) until the percent transmittance of the sample was approximately 10% at […] in a 10 mm path length. The bacteria were pelleted by centrifugation and then resuspended in 10 μl/animal of sterile PBS. Cotton rats were sedated with 200 μl of Ketamine (25 mg/kg), Rompun (2.5 mg/kg), and Acepromazine (2.5 mg/kg) delivered intramuscularly. Ten microliters, approximately 10^9 S. aureus CFUs per animal, of MBT 5040 in PBS was instilled in the nares using a micropipette without touching the nares. Specifically, a drop of bacterial inoculum was placed on the nostril with a micropipettor, without touching the nose. The animal's regular process of respiration then inhaled the drop into the nares. After introduction of the MBT 5040 bacteria, the cotton rats were returned to normal water, without nafcillin. Unless otherwise indicated, this method was consistently used to instill S. aureus in the nares for all examples discussed below.
# (§3) Ten cotton rats were nasally instilled with MBT 5040 S. aureus. On day 4 and day 5 post-instillation, the 5 animals were treated with a 0.5% lysostaphin cream and 5 animals were treated with a cream without lysostaphin added. Cream formulations were delivered into the nares of anaesthetized cotton rats by syringe through an Angiocath™ 22 GA flexible catheter (Becton Dickinson). The catheter was inserted approximately 3 mm into each of the nares and then drawn back as the cream was delivered. The noses of the cotton rats were massaged well following cream delivery to ensure good dispersal of cream. The dose of cream delivered to the nares was approximately 30-50 μl. Due to the cream's highly viscous nature, it was difficult to precisely gauge to volume of creams delivered to the nares. Unless otherwise indicated, this method of cream delivery into the nares was used throughout the examples below.
# (§4) To determine the efficacy of a single dose of 0.5% lysostaphin cream in eradicating S. aureus nasal colonization, cotton rats were instilled with either MBT 5040 (MRSA), Type 5 S. aureus (sensitive to methicillin; MSSA), or Type 8 S. aureus (MSSA). Half of the animals in each group were treated once on day 5 post-instillation with negative control cream and other half of the animals were treated on the same day with 0.5% lysostaphin cream.
# Type 8 S. aureus (MSSA) = assay: as above; type: in vivo; conditions: Table 6d; single dose of 0.5% lysostaphin cream
# Experimental: as §2, §3, §4
# S. aureus MBT 5040 = assay: Cotton rat model, cream instilled before instillation of bacteria (blocking of colonization); type: in vivo; conditions: administered in a viscous formulation such as a cream
# Experimental: To determine how long lysostaphin, when administered in a cream formulation, remains active in the nares, a single dose of 2% lysostaphin cream was instilled in cotton rat noses 48 hours, 24 hours, and 8 hours prior to instillation of 10^9 CFU of S. aureus MBT 5040. Control animals received control cream, without lysostaphin, 8 hours prior to receiving bacteria. Six days after introduction of the bacteria, each of the 5 animals per experimental group were sacrificed and the noses checked for S. aureus colonization.
# [2] = test system: S. aureus strain SA 3865 (mupirocin resistant); assay: Cotton rat nasal colonization model, single dose of cream; type: in vivo; conditions: Table 6d; single dose of 0.5% lysostaphin cream
# S. aureus = assay: Proteinase K neutralization of lysostaphin activity in vitro; type: cell-based; conditions: 10^5 S. aureus in PBS; lysostaphin 10 mcg and/or 10 mg/ml Proteinase K; 20 minutes at room temperature
# Experimental: Lysostaphin (10 mcg) was added to some samples of 10^5 S. aureus in PBS in the presence or absence of 10 mg/ml Proteinase K. The samples were incubated for 20 minutes at room temperatures and then 100 microliter aliquots were plated on blood agar.
# [3] = test system: S. aureus strain MRSA 12/12; assay: Cotton rat nasal colonization model, single dose of cream; type: in vivo; conditions: Table 6d; single dose of 0.5% lysostaphin cream
# Experimental: To further explore the relationship between lysostaphin-resistance and nasal colonization, treatment of S. aureus strain MRSA 12/12 nasal colonization with a single dose of 0.5% lysostaphin cream was also examined. MRSA 12/12 colonized the cotton rat nares (Table 6d), and a single treatment of 0.5% lysostaphin cream also eradicated nasal colonization by this strain. Nasal supernatant from treated animals was plated on both TSA/NaCl+nafcillin and TSA/NaCl alone since when MRSA become lysostaphin-resistant they revert to MSSA (17).
compound,measurement,setting,value
Lysostaphin: antibacterial endopeptidase cleaving pentaglycine bridges of staphylococcal cell walls; Ambicin L (recombinant lysostaphin) used in Examples 1-10,MIC,[1],0.064 µg/mL
same,Percentage of wells above lysostaphin MIC that have outgrowth of lysostaphin-resistance,SA5 Sam,18%
same,Percentage of wells above lysostaphin MIC that have outgrowth of lysostaphin-resistance,SA5 USU,14%
same,Percentage of wells above lysostaphin MIC that have outgrowth of lysostaphin-resistance,SA8 Sam,58%
same,MIC,MBT 5040 LysoR,> 32 µg/mL
same,growth in lysostaphin MIC assay,"S. aureus (ATCC 49521); lysostaphin 0.25 ng/ml, no bacitracin",G
same,growth in lysostaphin MIC assay,"S. aureus (ATCC 49521); lysostaphin 0.5 ng/ml, no bacitracin",G
same,growth in lysostaphin MIC assay,"S. aureus (ATCC 49521); lysostaphin 1 ng/ml, no bacitracin",G
same,growth in lysostaphin MIC assay,"S. aureus (ATCC 49521); lysostaphin 2 ng/ml, no bacitracin",R
same,growth in lysostaphin MIC assay,"S. aureus (ATCC 49521); lysostaphin 4 ng/ml, no bacitracin",R^3 and R^
same,growth in lysostaphin MIC assay,"S. aureus (ATCC 49521); lysostaphin 8 ng/ml, no bacitracin",R
same,growth in lysostaphin MIC assay,"S. aureus (ATCC 49521); lysostaphin 16 ng/ml, no bacitracin",R
same,growth in lysostaphin MIC assay,"S. aureus (ATCC 49521); lysostaphin 32 ng/ml, no bacitracin",R
same,growth in lysostaphin MIC assay,"S. aureus (ATCC 49521); lysostaphin 125 ng/ml, no bacitracin",R
same,growth in lysostaphin MIC assay,"S. aureus (ATCC 49521); lysostaphin 250 ng/ml, no bacitracin",R
same,Percentage of wells above lysostaphin MIC that have outgrowth of lysostaphin-resistance,S. aureus (ATCC 49521); nisin or bacitracin at four-fold dilution below MIC,31^a %
same,Animals Colonized/Animals Tested,Type 5 S. aureus (MSSA),0/5
same,Mean Colonization,Type 5 S. aureus (MSSA),0
same,Animals Colonized/Animals Tested,Type 8 S. aureus (MSSA),0/5
same,Mean Colonization,Type 8 S. aureus (MSSA),0
same,time lysostaphin remains active in the nares after administration,S. aureus MBT 5040,at least 48 hours
same,Animals Colonized/Animals Tested,[2],0/5
same,Mean Colonization,[2],0
same,CFUs Recovered,S. aureus,0 CFUs
same,Animals Colonized/Animals Tested,[3],0/5
same,Mean Colonization,[3],0
"COc1cccc(OC)c1C(=O)N[C@@H]1C(=O)N2[C@@H]1SC(C)(C)[C@@H]2C(=O)O [methicillin, reference compound]",MIC,"[1]; Staphylococcus aureus, MBT5040, read-out: MIC",> 36 µg/mL
"CC[C@H](C)[C@H](N)C1=N[C@H](C(=O)N[C@@H](CC(C)C)C(=O)N[C@H](CCC(=O)O)C(=O)N[C@H](C(=O)N[C@H]2CCCCNC(=O)[C@H](CC(N)=O)NC(=O)[C@@H](CC(=O)O)NC(=O)[C@H](Cc3cnc[nH]3)NC(=O)[C@@H](Cc3ccccc3)NC(=O)[C@H]([C@@H](C)CC)NC(=O)[C@@H](CCCN)NC2=O)[C@@H](C)CC)CS1 [Bacitracin, bacitracin, reference compound] (HELM PEPTIDE1{[CC[C@H](C)[C@H](N)C1=N[C@H](C(=O)[*:2])CS1].L.[dE].I.K.[NCCC[C@@H](N[*:1])C(=O)[*:2]].I.[dF].H.[dD].N}$PEPTIDE1,PEPTIDE1,5:R3-11:R2$$$V2.0)",growth in lysostaphin MIC assay,"S. aureus (ATCC 49521); lysostaphin 0 ng/ml, bacitracin 5 μg/ml",G^
